Our source for the inhibition and percent of formoterol maximum response values is patent publication US8476265B2, “Compounds-801” (AstraZeneca AB, priority 2010, dated 2013).

Assay [1] concerns the target T1, human muscarinic acetylcholine M3 receptor (Homo sapiens, UniProt P20309).
T1 construct: expressed in transfected cells; host or cells: CHO-K1 (Chinese Hamster Ovary) cell membranes
As to the kind of experiment: Muscarinic 3 receptor binding assay ([3H]NMS competition, SPA), single concentration 1 μM. Conditions: 1 μM compound; % inhibition specific [3H]-NMS binding. On the procedure: The following experimental procedure was used to determine the M3% inhibition at 1 μM of the compounds of Examples 99-175
Muscarinic 3 Receptor Binding Assay
The activity (% inhibition specific binding) of compounds on the M3 receptor is determined by competition binding of [^3H]N-methyl scopolamine (NMS) to CHO-K1 (Chinese Hamster Ovary) cell membranes expressing the human muscarinic acetylcholine M3 receptor (M3-ACh) in a scintillation proximity assay (SPA) format. SPA beads are precoated with membranes and then incubated at 2 mg of beads per well with 1 μM compound of the invention, [^3H]NMS at 0.1 nM, quarter Kd (experimentally determined dissociation constant) and assay buffer (20 mM HEPES pH 7.4 containing 5 mM MgCl2 and 0.1% (w/v) bovine serum albumin). The assay is conducted in a final volume of 200 μL, in the presence of 1% (v/v) dimethyl sulphoxide (DMSO). Total binding of [^3H]NMS is determined in the absence of competing compound and non-specific binding of [^3H]NMS is determined in the presence of 1 μM atropine. The plates are incubated for 16 hours at room temperature and then read on Wallac Microbeta™ using a normalised ^3H protocol. The compound activity at 1 μM, defined as % inhibition specific [^3H]-NMS binding, is determined.

The target in the next assay is T2, Adrenergic β2 (Homo sapiens, UniProt P07550).
T2 construct: Adherent H292 cells are removed from tissue culture flasks by treatment with Accutase™ cell detachment solution; endogenous in cells; host or cells: H292 cells
As to the kind of experiment: Adrenergic β2 mediated cAMP production in H292 cells, single concentration 1 μM. Format: cell-based. Conditions: NCI-H292, 1 μM compound, cAMP as percentage of the maximum response generated by 1E-07M formoterol, read-out: β2 % effect @1 uM. The method, then: The following experimental procedure was used to measure the beta-2% effect at 1 μM for the compounds of Examples 99-175. Adrenergic p2 Mediated cAMP Production Cell Preparation
H292 cells are grown in 225 cm2 flasks incubator at 37° C., 5% CO2 in RPMI medium containing 10% (v/v) FBS (foetal bovine serum) and 2 mM L-glutamine.
Compounds are prepared by an initial first dilution into DMSO to give 1 mM stock concentration. This is followed by a 1 in 10 dilution of the stock concentration (10 μl stock compound +90 μl DMSO) to give 0.1 mM compound. A compound addition plate is prepared by making a further 1 in 25 dilution in assay buffer (HBSS solution containing 10 mM HEPES pH7.4 and 5 mM glucose) containing 4% dimethylsulfoxide. The final compound concentration in assay is 1 μM.
Adherent H292 cells are removed from tissue culture flasks by treatment with Accutase™ cell detachment solution for 15 minutes. Flasks are incubated for 15 minutes in a humidified incubator at 37° C., 5% CO2. Detached cells are re-suspended in RPMI media (containing 10% (v/v) FBS and 2 mM L-glutamine) at 0.1×10^6 cells per mL. 10000 cells in 100 μL are added to each well of a tissue-culture-treated 96-well plate and the cells incubated overnight in a humidified incubator at 37° C., 5% CO2. The culture media is removed and cells are washed twice with 100 μL assay buffer and replaced with 50 μL assay buffer (HBSS solution containing 10 mM HEPES pH7.4 and 5 mM glucose). Cells are rested at room temperature for 20 minutes after which time 25 μL of rolipram (1.2 mM made up in assay buffer) is added. Cells are incubated with rolipram for 10 minutes after which time 25 μl test compounds are added and the cells are incubated for 60 minutes at room temperature. The final rolipram concentration in the assay is 300 μM and final vehicle concentration is 1% (v/v) dimethylsulphoxide. The reaction is stopped by removing supernatants, washing once with 100 μL assay buffer and replacing with 50 μL lysis buffer. The cell monolayer is frozen at −80° C. for 30 minutes (or overnight).
AlphaScreen™ cAMP Detection
The concentration of cAMP (cyclic adenosine monophosphate) in the cell lysate is determined using AlphaScreen™ methodology. The frozen cell plate is thawed for 20 minutes on a plate shaker then 10 μL of the cell lysate is transferred to a 96-well white plate. 40 μl of mixed AlphaScreen™ detection beads (containing equal volumes of donor beads (pre-incubated with biotinylated cAMP in the dark for 30 minutes) and acceptor beads is added to each well and the plate incubated at room temperature for 3 hours in the dark. The AlphaScreen™ signal is measured using an EnVision spectrophotometer (Perkin-Elmer Inc.) with the recommended manufacturer's settings. Concentration of cAMP produced per well were calculated with reference to the cAMP standard curve determined in the same experiment and expressed as a percentage of the maximum response generated by 1E-07M formoterol.
A general note: Changes in cAMP serve as a functional read-out for many G protein-coupled receptors.

T1 sequence (P20309 whole entry): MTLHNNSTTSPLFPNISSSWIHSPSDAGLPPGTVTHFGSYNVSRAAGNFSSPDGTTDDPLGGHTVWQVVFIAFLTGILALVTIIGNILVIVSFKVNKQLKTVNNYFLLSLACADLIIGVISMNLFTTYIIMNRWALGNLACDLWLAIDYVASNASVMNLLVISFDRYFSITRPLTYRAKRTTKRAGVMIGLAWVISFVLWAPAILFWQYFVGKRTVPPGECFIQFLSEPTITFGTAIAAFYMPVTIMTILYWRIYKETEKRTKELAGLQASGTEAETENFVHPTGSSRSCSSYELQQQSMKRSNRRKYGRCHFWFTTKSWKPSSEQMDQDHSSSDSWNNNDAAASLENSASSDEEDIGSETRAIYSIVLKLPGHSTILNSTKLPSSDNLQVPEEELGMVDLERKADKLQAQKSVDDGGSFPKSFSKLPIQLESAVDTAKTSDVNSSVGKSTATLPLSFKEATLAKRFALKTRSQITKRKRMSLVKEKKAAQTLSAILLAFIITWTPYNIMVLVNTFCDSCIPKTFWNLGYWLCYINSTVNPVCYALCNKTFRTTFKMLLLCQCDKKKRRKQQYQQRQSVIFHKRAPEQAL
T2 sequence (P07550 whole entry): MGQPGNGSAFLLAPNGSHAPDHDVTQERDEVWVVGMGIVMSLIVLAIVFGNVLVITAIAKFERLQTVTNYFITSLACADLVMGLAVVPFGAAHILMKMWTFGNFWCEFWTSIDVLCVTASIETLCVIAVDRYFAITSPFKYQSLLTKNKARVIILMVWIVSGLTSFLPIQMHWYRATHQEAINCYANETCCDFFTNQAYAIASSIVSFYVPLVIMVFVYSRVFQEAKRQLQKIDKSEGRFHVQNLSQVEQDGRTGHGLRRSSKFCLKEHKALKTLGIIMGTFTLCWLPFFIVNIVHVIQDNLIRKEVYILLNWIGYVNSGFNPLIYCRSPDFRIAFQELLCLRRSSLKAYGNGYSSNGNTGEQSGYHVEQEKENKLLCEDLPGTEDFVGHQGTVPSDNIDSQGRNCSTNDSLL

Usually inhibition stands for the change of the read-out against control, counted positive when it falls. For the compound `O=C1COc2c(CCNCCN(C(=O)CCOCCc3cccc(CN4CCC5(CC4)CN(C(=O)COCc4nc6ccccc6s4)CCO5)c3)C3CCCCC3)ccc(O)c2N1` [Example 126, 3-(3-((4-(2-(Benzo[d]thiazol-2-ylmethoxy)acetyl)-1-oxa-4,9-diazaspiro[5.5]undecan-9-yl)methyl)phenethoxy)-N-cyclohexyl-N-(2-(2-(5-hydroxy-3-oxo-3,4-dihydro-2H-benzo[b][1,4]oxazin-8-yl)ethylamino)ethyl)propanamide], the inhibition at 1 µM in assay [1] is 101%. In addition, on Adrenergic β2, the percent of formoterol maximum response at 1 µM worked out at 103%.
For the compound `Cc1ccccc1OCC(=O)N1CCOC2(CCN(Cc3cccc(CCOCCC(=O)N(CCNCCc4ccc(O)c5c4OCC(=O)N5)C4CCCCC4)c3)CC2)C1` [Example 127, N-Cyclohexyl-N-(2-(2-(5-hydroxy-3-oxo-3,4-dihydro-2H-benzo[b][1,4]oxazin-8-yl)ethylamino)ethyl)-3-(3-((4-(2-(o-tolyloxy)acetyl)-1-oxa-4,9-diazaspiro[5.5]undecan-9-yl)methyl)phenethoxy)propanamide], the inhibition at 1 µM in assay [1] turned out to be 97%. The percent of formoterol maximum response at 1 µM on Adrenergic β2 stood at 110%.
The corresponding values for `O=C1COc2c(CCNCCN(C(=O)CCOCCc3cccc(CN4CCC5(CC4)CN(C(=O)[C@@H](O)C4CCCCC4)CCO5)c3)C3CCCCC3)ccc(O)c2N1` [Example 129, (S)-N-Cyclohexyl-3-(3-((4-(2-cyclohexyl-2-hydroxyacetyl)-1-oxa-4,9-diazaspiro[5.5]undecan-9-yl)methyl)phenethoxy)-N-(2-(2-(5-hydroxy-3-oxo-3,4-dihydro-2H-benzo[b][1,4]oxazin-8-yl)ethylamino)ethyl)propanamide] are 99% and 110%.
The corresponding values for `O=C1COc2c(CCNCCN(C(=O)CCOCCc3cccc(CN4CCC5(CC4)CN(C(=O)[C@H](O)c4cccc(Cl)c4)CCO5)c3)C3CCCCC3)ccc(O)c2N1` [Example 130, (R)-3-(3-((4-(2-(3-Chlorophenyl)-2-hydroxyacetyl)-1-oxa-4,9-diazaspiro[5.5]undecan-9-yl)methyl)phenethoxy)-N-cyclohexyl-N-(2-(2-(5-hydroxy-3-oxo-3,4-dihydro-2H-benzo[b][1,4]oxazin-8-yl)ethylamino)ethyl)propanamide] are 99% and 114%.
The matching figures for `O=C1COc2c(CCNCCN(C(=O)CCOCCc3cccc(CN4CCC5(CC4)CN(C(=O)CC4C[C@@H]6CC[C@H]4C6)CCO5)c3)C3CCCCC3)ccc(O)c2N1` (stereo partly drawn) [Example 131, 3-(3-((4-(2-((1S,4R)-Bicyclo[2.2.1]heptan-2-yl)acetyl)-1-oxa-4,9-diazaspiro[5.5]undecan-9-yl)methyl)phenethoxy)-N-cyclohexyl-N-(2-(2-(5-hydroxy-3-oxo-3,4-dihydro-2H-benzo[b][1,4]oxazin-8-yl)ethylamino)ethyl)propanamide]: 99% and 97%.
For `O=C1COc2c(CCNCCN(C(=O)CCOCCc3cccc(CN4CCC5(CC4)CN(C(=O)c4cc(Br)c[nH]4)CCO5)c3)C3CCCCC3)ccc(O)c2N1` [Example 132, 3-(3-((4-(4-Bromo-1H-pyrrole-2-carbonyl)-1-oxa-4,9-diazaspiro[5.5]undecan-9-yl)methyl)phenethoxy)-N-cyclohexyl-N-(2-(2-(5-hydroxy-3-oxo-3,4-dihydro-2H-benzo[b][1,4]oxazin-8-yl)ethylamino)ethyl)propanamide], the inhibition at 1 µM in assay [1] turned out to be 101%. Also, the percent of formoterol maximum response at 1 µM on Adrenergic β2 was 96%.
The matching figures for `O=C1COc2c(CCNCCN(C(=O)CCOCCc3cccc(CN4CCC5(CC4)CN(C(=O)c4n[nH]cc4Cl)CCO5)c3)C3CCCCC3)ccc(O)c2N1` [Example 133, 3-(3-((4-(4-Chloro-1H-pyrazole-3-carbonyl)-1-oxa-4,9-diazaspiro[5.5]undecan-9-yl)methyl)phenethoxy)-N-cyclohexyl-N-(2-(2-(5-hydroxy-3-oxo-3,4-dihydro-2H-benzo[b][1,4]oxazin-8-yl)ethylamino)ethyl)propanamide]: 101% and 83%.
The corresponding values for `O=C1COc2c(CCNCCN(C(=O)CCOCCc3cccc(CN4CCC5(CC4)CN(C(=O)[C@@H](O)Cc4ccccc4)CCO5)c3)C3CCCCC3)ccc(O)c2N1` [Example 134, (S)-N-Cyclohexyl-N-(2-(2-(5-hydroxy-3-oxo-3,4-dihydro-2H-benzo[b][1,4]oxazin-8-yl)ethylamino)ethyl)-3-(3-((4-(2-hydroxy-3-phenylpropanoyl)-1-oxa-4,9-diazaspiro[5.5]undecan-9-yl)methyl)phenethoxy)propanamide] are 97% and 89%.
The corresponding values for `O=C1COc2c(CCNCCN(C(=O)CCOCCc3cccc(CN4CCC5(CC4)CN(C(=O)c4ccc(-n6ccnc6)cc4)CCO5)c3)C3CCCCC3)ccc(O)c2N1` [Example 135, 3-(3-((4-(4-(1H-Imidazol-1-yl)benzoyl)-1-oxa-4,9-diazaspiro[5.5]undecan-9-yl)methyl)phenethoxy)-N-cyclohexyl-N-(2-(2-(5-hydroxy-3-oxo-3,4-dihydro-2H-benzo[b][1,4]oxazin-8-yl)ethylamino)ethyl)propanamide] are 66% and 86%.
As to `Cc1ccc2[nH]c(C(=O)N3CCOC4(CCN(Cc5cccc(CCOCCC(=O)N(CCNCCc6ccc(O)c7c6OCC(=O)N7)C6CCCCC6)c5)CC4)C3)cc2c1` [Example 136, N-Cyclohexyl-N-(2-(2-(5-hydroxy-3-oxo-3,4-dihydro-2H-benzo[b][1,4]oxazin-8-yl)ethylamino)ethyl)-3-(3-((4-(5-methyl-1H-indole-2-carbonyl)-1-oxa-4,9-diazaspiro[5.5]undecan-9-yl)methyl)phenethoxy)propanamide], the inhibition at 1 µM in assay [1] was determined as 99%. The percent of formoterol maximum response at 1 µM on Adrenergic β2 was 92%.
The corresponding values for `CC(C)C[C@H](O)C(=O)N1CCOC2(CCN(Cc3cccc(CCOCCC(=O)N(CCNCCc4ccc(O)c5c4OCC(=O)N5)C4CCCCC4)c3)CC2)C1` [Example 137, (S)-N-Cyclohexyl-N-(2-(2-(5-hydroxy-3-oxo-3,4-dihydro-2H-benzo[b][1,4]oxazin-8-yl)ethylamino)ethyl)-3-(3-((4-(2-hydroxy-4-methylpentanoyl)-1-oxa-4,9-diazaspiro[5.5]undecan-9-yl)methyl)phenethoxy)propanamide] are 100% and 88%.
Turning to `Cc1ccccc1CC(=O)N1CCOC2(CCN(Cc3cccc(CCOCCC(=O)N(CCNCCc4ccc(O)c5c4OCC(=O)N5)C4CCCCC4)c3)CC2)C1` [Example 139, N-Cyclohexyl-N-(2-(2-(5-hydroxy-3-oxo-3,4-dihydro-2H-benzo[b][1,4]oxazin-8-yl)ethylamino)ethyl)-3-(3-((4-(2-o-tolylacetyl)-1-oxa-4,9-diazaspiro[5.5]undecan-9-yl)methyl)phenethoxy)propanamide], the inhibition at 1 µM in assay [1] amounted to 100%. Moreover, the percent of formoterol maximum response at 1 µM at Adrenergic β2 worked out at 94%.
